Measurements taken from US7994122B2, “Glucagon analogues” (Zealand Pharma A/S, priority 2007, dated 2011).
Where no end group is shown, it is not given here.

Experiments:
[1] = Body weight in diet induced obese (DIO) mice; assay type: in vivo, C57BI/6J male mice; conditions: HFD (DIO) mice
Protocol: Efficacious glucagon/GLP-1 receptor agonists are tested on 9-15 weeks old, 40 C57BI/6J male mice which have been kept on a High Fat Diet (HFD)—60% high-fat food (Cat. No. D12492: 20% protein, 20% carbohydrate, and 60% fat, 5.2 kcal/g; Research Diets, New Jersey, USA, for 4 weeks. The high-fat food contains soybean oil (25/773.85 g) and lard (245/773.85 g).
DIO-mice are treated with vehicle or co-agonists for 2-4 weeks by bolus administration (s.c.) twice daily. Body weight is monitored daily throughout the experiment. At the end of the experimental period animals are sacrificed, blood collected for analysis of glycated hemoglobin and a range of hormones and peptides involved in regulation of appetite, food intake, body weight, and energy balances. In addition, the epididymal/perigonadal fat pads and retroperitoneal fat (WAT) as well as the intrascapular Brown Adipose Tissue (BAT) are dissected out and weighed. […]
Following an acclimatization treatment with 100 μl vehicle (PBS) once a day for two weeks DIO-mice were treated with vehicle, control peptides or Compound 3 for 4 weeks by bolus administration (s.c.) twice daily. Body weight was monitored daily throughout the experiment. […]

hGLP-1-R = biological target: T1, hGLP-1-R (Homo sapiens, UniProt P43220); assay: GLP-1 receptor efficacy assay (cAMP) in HEK293 cells expressing hGLP-1-R; assay type: cell-based
T1 construct: expressed in transfected cells
From the text: The DNA encoding the Glucagon-R or the GLP-1-R was amplified by PCR using primers encoding terminal restriction sites for subcloning. The 5′-end primers additionally encoded a near Kozak consensus sequence to ensure efficient translation. The PCR products encoding the Glucagon-R or the GLP-1-R were subcloned into a mammalian expression vector. The fidelity of the DNA encoding the Glucagon-R and the GLP-1-R was confirmed by DNA sequencing. As the mammalian expression vector additionally encodes for G418 resistance, transfected cells may be selected by applying selection pressure with G418. […] 48 hr after transfection cells were seeded for limited dilution cloning and selected with 1 mg/ml G418 in the culture medium. […] One Glucagon-R expressing clone and one GLP-1-R expressing clone were chosen for compound profiling.
HEK293 cells expressing the hGlucagon-R, or hGLP-1-R are seeded at 40,000 cells per well in 96-well microtiter plates coated with 0.01% poly-L-lysine and grown for 1 day in culture in […] growth medium. On the day of analysis, growth medium is removed and the cells washed once with 200 μl Tyrode buffer. Cells are incubated in 100 μl Tyrode buffer containing increasing concentrations of test peptides, 100 μM IBMX, and 6 mM glucose for up 15 min at 37° C. The reaction is stopped by addition of 25 μl 0.5 M HCl and incubated on ice for 60 min. The cAMP content is estimated using the FlashPlate® cAMP kit from Perkin-Elmer. EC50 and relative efficacy are estimated by computer aided curve fitting.

[2] = administered separately; Dakin et al. 2001; cited from earlier work

T1 sequence (P43220 24-463): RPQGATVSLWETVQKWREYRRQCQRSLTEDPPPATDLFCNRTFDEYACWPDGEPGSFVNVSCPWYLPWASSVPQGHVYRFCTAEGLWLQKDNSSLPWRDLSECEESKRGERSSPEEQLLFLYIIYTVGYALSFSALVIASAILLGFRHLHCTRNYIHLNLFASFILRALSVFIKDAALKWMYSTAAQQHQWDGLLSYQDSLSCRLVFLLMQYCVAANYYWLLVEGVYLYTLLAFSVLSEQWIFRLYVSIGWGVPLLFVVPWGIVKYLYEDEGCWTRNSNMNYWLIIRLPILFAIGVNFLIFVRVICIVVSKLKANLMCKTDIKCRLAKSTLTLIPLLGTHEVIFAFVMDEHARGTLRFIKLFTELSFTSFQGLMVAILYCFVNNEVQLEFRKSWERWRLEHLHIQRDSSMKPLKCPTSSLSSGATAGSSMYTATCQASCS

ratio (GluR / GLP1R EC values) (hGLP-1-R; first test) | EC50[Glu]/EC50[GLP-1] ratio (hGLP-1-R; re-testing) | EC50 (hGLP-1-R; re-testing, cAMP, HEK293 hGLP-1-R) [nM] | Substance | body weight gain ([1]; s.c. bolus 500 nmol/kg twice daily, 28 days, p<0.05 vs vehicle HFD) | weight reducing effect over time ([1]; s.c. twice daily, 4 weeks (FIG. 2)) | effect on food intake [2]
1.27 | 2.13 | 0.23 | H-HSQGTFTSDYSKYLDRARADDFVAWLKST-NH2 [Compound 3] | able to reduce body weight gain comparable to oxyntomodulin treatment | sustained over time comparable to oxyntomodulin treatment and significantly different from exendin-4 treatment | –
– | – | – | KRNRNNIA [IP-1, C-terminal octapeptide of oxyntomodulin] | – | – | fail to affect food intake
